Experiment in all cases: NCI-60 cell line screen, 48 h
Test [1] has as its system NCI-H522 lung.
The subject of test [2] is SF-295 CNS.
The test system of test [3] is EKVX NSCLC.
For test [4], the system named is SN12C renal.
The subject of test [5] is MALME-3M melanoma.
The subject of test [6] is A498 renal.
Test [7] relates to SNB-19 CNS.
The test system of test [8] is SK-OV-3 ovarian.
The subject of test [9] is UO-31 renal.
The subject of test [10] is UACC-257 melanoma.
For test [11], the system named is K-562 leukemia.
The test system of test [12] is OVCAR-4 ovarian.
Test [13] has as its system NCI-H23 lung.
For test [14], the system named is RXF 393 renal.
The test system of test [15] is HOP-62 NSCLC.
The subject of test [16] is MCF7 breast.
Test [17] concerns T-47D breast.

Drawing on PubChem BioAssay (NCI), this text covers TGI for 19 molecules.

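Five concentrations, 48 hours, 96-well plates. TGI: concentration producing complete growth inhibition.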 Some results are limits rather than exact numbers.

Consider `CCC1CN2CCC3(c4ccccc4)CC(C(=O)OC)=CC1C23` (stereo not given), for which the TGI in [1] worked out at 27.2 µM; in test [2] it was 33.1 µM; in test [3], 34.1 µM; in test [4] it was 30.4 µM; in test [5] it was 29.7 µM; in test [6] it was 33.9 µM. For the same molecule, the TGI in test [7] worked out at 35 µM; in [8], 26.5 µM; in [9], 27.1 µM; in test [10] it was 32 µM; in [11], 24.9 µM; in test [12], 27.8 µM. Moreover, the TGI is 28.9 µM in test [13], 33.6 µM in [14] and 38.4 µM in [15].

On to `CCOC(OC1=C(C#N)CCCC1)C(C)[Se]c1ccccc1` (stereo not given), for which the TGI in [1] is 30.8 µM; in test [2], over 100 µM; in test [3], over 100 µM; in test [4], 89.9 µM; in test [5] it was over 100 µM; in [6] it was over 100 µM. Moreover, the TGI in test [7] is over 100 µM; in [8] it was over 100 µM; in [9], over 100 µM; in test [10], over 100 µM; in [11], over 100 µM; in test [12] it was 47.6 µM. The figures for the TGI in test [13], in test [14] and in test [15] were 39.4 µM, 29.8 µM and over 100 µM, respectively.

`O=c1[nH]n(Cc2ccccc2Cl)c2ccccc12`: the TGI in test [1], in [3], in test [4], in [5], in [6] and in test [7] was over 100 µM throughout. In addition, the TGI in test [9], in test [10], in test [11], in test [12], in [13] and in test [15] was over 100 µM in each case.

For `O=C(CC1C(=O)c2ccccc2C1=C1C(=O)c2ccccc2C1=O)c1ccccc1` (stereo not given), the TGI in test [1] is 97.3 µM; in test [2], over 100 µM; in [3], over 100 µM; in test [4], over 100 µM; in test [5] it was over 100 µM; in test [6] it was over 100 µM. The TGI in test [7], in test [8], in [9], in test [10], in test [11] and in [12] was over 100 µM throughout. Besides, the TGI in test [13], in test [14] and in [15] was over 100 µM in each case.

For `CC(C)(C)S(=O)OC12CC3CC(CC(C3)C1)C2` (stereo not given), the TGI in test [1], in test [2], in test [3], in test [4], in test [5] and in test [7] was over 100 µM each time. Moreover, the TGI in [9], in test [12], in test [13], in test [14] and in test [15] was over 100 µM each time.

In the case of `Cc1cc(N(CCC#N)CCC#N)ccc1C=Nc1ccc(C(=O)NN2C(=O)/C(=C/c3ccc(N(CCC#N)CCC#N)cc3)N=C2c2cc([N+](=O)[O-])ccc2Cl)cc1`, the TGI in test [3], in test [4], in [5], in test [6], in test [7] and in [8] was over 100 µM each time. The TGI in test [9], in test [10], in test [11], in [12], in test [13] and in test [14] was over 100 µM throughout. The TGI in test [15] was over 100 µM.

In the case of `N#Cc1c(N2CCOCC2)[nH]c(=O)c(C(c2c(Cl)cccc2Cl)c2c(O)c(C#N)c(N3CCOCC3)[nH]c2=O)c1O`, the TGI is 28.2 µM in test [1]; 34.2 µM in [16]; over 100 µM in [2]; 39 µM in test [3]; 34.5 µM in [4]; 26.8 µM in test [5]. The TGI is over 100 µM in test [6]; 29.6 µM in test [7]; 33.5 µM in test [9]; 34 µM in [10]; 23.2 µM in test [11]; 32.9 µM in test [12]. The TGI in test [13] worked out at 32.8 µM; in test [14] it was 35.5 µM; in test [15] it was 79.3 µM.

Turning to `CC(=O)C1=CCC2c3[nH]c4ccccc4c3CCN2C1` (stereo not given), the TGI was 65.6 µM in [1]; over 100 µM in [2]; over 100 µM in test [3]; over 100 µM in test [4]; over 100 µM in test [5]; over 100 µM in test [6]. Besides, the TGI was over 100 µM in [7]; 75.6 µM in test [8]; over 100 µM in test [9]; over 100 µM in [10]; 91.3 µM in test [11]; over 100 µM in test [12]. Besides, the TGI in test [13], in test [14] and in test [15] was over 100 µM throughout.

With `COc1ccc(N=[N+]([O-])c2ccc(OC)cc2)cc1`, the TGI in test [1], in test [16], in [2], in test [3], in test [5] and in test [6] was over 100 µM in each case. In addition, the TGI in [7], in test [8], in test [9], in test [10], in test [11] and in test [12] was over 100 µM in each case. The TGI in [13], in test [14] and in [15] was over 100 µM each time.

As for `CC(=O)OCC(Br)C1(C)CCC(C(C)(C)Br)O1` (stereo not given), the TGI in [1] is 86.7 µM; in [16] it was over 100 µM; in [2] it was over 100 µM; in [3] it was over 100 µM; in [4], over 100 µM; in test [5], over 100 µM. Also, the TGI in test [6] was over 100 µM; in [7] it was over 100 µM; in test [8] it was over 100 µM; in test [9] it was over 100 µM; in test [10], 45.2 µM; in test [11], over 100 µM. Besides, the TGI in test [12] is 72 µM; in [13] it was over 100 µM; in [14], over 100 µM; in test [15], over 100 µM.

On to `Cc1ccc(S(=O)(=O)c2c(N)n(CCN(C)C)c3nc4ccccc4nc23)cc1`, for which the TGI in test [1] is 58.7 µM; in test [2], over 100 µM; in test [3], over 100 µM; in test [4] it was over 100 µM; in test [5], over 100 µM; in [7] it was over 100 µM. Besides, the TGI in test [8], in [9], in [10], in test [11], in [12] and in [13] was over 100 µM in each case.

Regarding `CC(=O)ON(C(C)=O)c1ccc(-c2nc3ccccc3s2)cc1C`, the TGI was over 100 µM in [1]; over 100 µM in [2]; over 100 µM in test [3]; over 100 µM in test [4]; over 100 µM in test [5]; 16.9 µM in test [6]. Moreover, the TGI in [7], in test [9], in test [10], in test [11], in test [12] and in [13] was over 100 µM each time. In test [15], the TGI was over 100 µM.

For `c1ccc(CC2(c3cc4ccccc4[nH]3)OCCO2)nc1`, the TGI in test [1], in test [2], in test [3], in [4], in test [5] and in test [6] was over 100 µM throughout. The TGI in test [7], in [8], in test [9], in test [17], in test [10] and in [11] was over 100 µM each time. Besides, the TGI in test [13], in test [14] and in test [15] was over 100 µM in each case.

Take `CC(CCCOC(c1ccccc1)(c1ccccc1)c1ccccc1)OC(=O)Nc1ccccc1` (stereo not given): the TGI in test [1] is 23.9 µM; in [2] it was 25.3 µM; in [4] it was 24.4 µM; in test [5], 29.6 µM; in test [8], 27.2 µM; in test [9], 23.7 µM. Further, the TGI in test [10] turned out to be 28.8 µM; in test [11] it was 32.4 µM; in [12] it was 25 µM; in test [13] it was 21.7 µM; in [14], 26.5 µM; in test [15], 28.1 µM.

As for `CC(C)(C)OC(=O)N(CCCCNCc1ccc2ccccc2c1)CCCNCc1ccc2ccccc2c1`, the TGI in test [1] was 3.07 µM; in test [3], 3.05 µM; in test [4] it was 3.32 µM; in test [6] it was 3.47 µM; in test [7], 3.22 µM; in test [8], 3.56 µM. For the same molecule, the TGI stood at 3.17 µM in test [9]; 3.44 µM in [17]; 3.42 µM in [10]; 1.11 µM in test [11]; 3.19 µM in test [12]; 3.42 µM in test [13]. For the same molecule, in [15], the TGI came to 3.87 µM.

On to `Cc1ccc(NC(=O)C(=O)Cc2cc[n+]([O-])cc2)cc1`, for which the TGI in test [1], in [2], in test [3], in [4], in test [5] and in test [6] was over 100 µM each time. Moreover, the TGI in [7], in [8], in test [9], in test [10], in [11] and in test [12] was over 100 µM in each case. Also, the TGI in [13], in test [14] and in test [15] was over 100 µM in each case.

Consider `Cc1cccc2c(=O)c3cccc([C@@H](C)C(=O)O)c3oc12`, for which the TGI in test [1], in test [2], in [3], in test [4], in test [6] and in test [7] was over 100 µM in each case. The TGI in test [8], in test [9], in test [17], in test [10], in test [11] and in test [12] was over 100 µM in each case. Also, the TGI in test [13] and in test [15] was over 100 µM each time.

Regarding `COc1cccc(-c2nc(-c3cnccn3)n(COCCO)n2)c1`, the TGI in [1], in [16], in [2], in [4], in test [7] and in [8] was over 100 µM each time. Further, the TGI in test [9], in test [17], in test [10], in test [11], in test [12] and in test [13] was over 100 µM throughout. Also, the TGI in test [14] and in [15] was over 100 µM throughout.

For the molecule `CN(C)Cc1cc(N=Nc2ccc(Cl)cc2)ccc1OC(=O)c1ccccc1`, the TGI is 26.5 µM in test [1]; 28.7 µM in [16]; 28.7 µM in test [2]; 25.9 µM in [3]; 28.2 µM in test [4]; 31 µM in [5]. The TGI in test [6] worked out at 31.5 µM; in test [7], 29.8 µM; in [9], 25.2 µM; in [10], 35.2 µM; in test [11] it was 35.8 µM; in [12], 28.5 µM. For the same molecule, the values for the TGI in [13], in test [14] and in [15] were 34.4 µM, 30.1 µM and 26.5 µM, respectively.
